According to patent publication US20140328762A1, “Fluorogenic Peptide Probes and Assays” (priority 2011, published 2014):
Like-named read-outs stand apart in the source and are kept apart here.

How the values were obtained:
E3 peptide [1] = assay: CD spectra analysis of binding between unlabeled K3-b1b3 and E3 peptides; settings: curve fitting
FosLZ = molecular target: T1, FosLZ (Homo sapiens, UniProt P01100); assay: Non-specific fluorescence enhancement (crosstalk) assay, FIG. 14, with FosLZ; assay type: binding; settings: 100 nM beacon, 10 μM FosLZ, 580 nm, excitation 520 nm
T1 construct: TDTLQAE TDQLEDE KSALQTE IANLLKE KEKLEFI LA; made in house; host or cells: E. coli BL21(DE3)
Procedure: (§1) FIGS. 14A and 14B show bar graphs of relative fluorescence intensity versus different peptide beacons. Non-specific fluorescence enhancement of peptide beacons by various unrelated coiled coil-forming peptides is shown. All reagents other than the beacons are loaded to 10 μM. The data represent relative fluorescence intensity at 580 nm (bandwidth 20 nm) collected by excitation at 520 nm (band width 15 nm). (FIG. 14A) All samples contain 100 nM K3-b1b3 beacon. Columns A, B, C, D, E are beacon only, beacon with unlabeled JunLZ-Lb1b4, beacon with unlabeled FosLZ, beacon with unlabeled GCN4 244, and beacon with E3 peptide, respectively. […] Column A, B, C, D, E are beacon only, beacon with unlabeled K3-b1b3 peptide, beacon with E3 peptide, beacon with unlabeled GCN4 244, beacon with FosLZ.
(§2) So a concern about the binding specificity naturally arises. […] It is not a surprising result, since both peptides have leucine residues at all d positions, and that multiple electrostatic interactions exist between […].

unlabeled GCN4 244 = molecular target: T2, unlabeled GCN4 244 (Saccharomyces cerevisiae, UniProt P03069, A244C/S225C); assay: Non-specific fluorescence enhancement (crosstalk) assay, FIG. 14, with unlabeled GCN4 244; assay type: binding, yeast; settings: 100 nM beacon, 10 μM unlabeled GCN4 244, 580 nm, excitation 520 nm
T2 construct: […]; MKQLEDK; GGSGG linker (internal); made in house; host or cells: E. coli BL21(DE3)
Procedure: as §1, §2

wild-type MBP = wild-type MBP (Escherichia coli, UniProt P0AEX9); settings: data not shown
Source text: (§3) All spectra data were obtained with Safire II microplate reader (TECAN). Data was acquired right after mixing the beacon with its target.
(§4) The application of using the K3-b1b3 beacon for detection of E3-fusion proteins has also been tested. For this purpose, a recombinant maltose binding protein (MBP) with E3 fused at its C-terminal end was created.

MBP-E3 = MBP-E3 (Escherichia coli, UniProt P0AEX9); settings: data not shown
Source text: as §4

[2] = tested on: unrelated coiled coil-forming peptides; assay: Crosstalk of beacon with unrelated peptides, overall; assay type: binding; settings: FIG. 14
Procedure: as §1, §2

E3 peptide [3] = assay: Fluorescence titration of K3-b1b3 beacon with E3 peptide; assay type: binding
Procedure: as §3
To further characterize the K3-b1b3 beacon, titration of lower concentration (10 nM) of K3-b1b3 beacon has also been performed.

unlabeled JunLZ-Lb1b4 = assay: Non-specific fluorescence enhancement (crosstalk) assay, FIG. 14A, with unlabeled JunLZ-Lb1b4; assay type: binding; settings: 100 nM beacon, 10 μM unlabeled JunLZ-Lb1b4, 580 nm, excitation 520 nm
Procedure: as §1, §2

E3 peptide [4] = assay: Non-specific fluorescence enhancement (crosstalk) assay, FIG. 14, with E3 peptide; assay type: binding; settings: 100 nM beacon, 10 μM E3 peptide, 580 nm, excitation 520 nm
Procedure: as §1, §2

AP-1 DNA [5] = assay: Absorbance spectra of GCN4 beacons with AP-1 DNA; assay type: binding; settings: 1 μM beacon, 10 μM DNA
Procedure: FIGS. 2A and 2B show line graphs of absorbance versus wavelength (nm). […] All samples contain 1 μM beacon, and concentration for DNA is 10 μM.
(§5) The AP-1 DNA and AT DNA were used for GCN-4 beacons binding assays as the target and control DNAs, respectively. Rex aptamer and TAR RNA were used for Rex beacon binding assays as the target and control RNAs, respectively. For detailed structures of Rex aptamer and TAR RNA, refer to PDB 1EXY and 1MNB, respectively.
As shown by the shifted absorbance peaks (i.e. shift of highest peak) in FIGS. 2A and 2B, both GCN4 225/237 and GCN4 225/244 beacons allow formation of TAMRA H-dimer. […] The GCN4 225/244 beacon was selected for further characterization.

AP-1 DNA [6] = assay: Fluorescence titration of GCN4 beacon with AP-1 DNA; assay type: binding; settings: titration of 100 nM beacon with increasing concentration of AP-1 DNA
Procedure: (§6) Samples contain 100 nM GCN4 225/244 beacon and indicated concentration of DNA.
as §5

AT DNA = assay: Fluorescence titration of GCN4 beacon with AT DNA (negative control); assay type: binding; settings: 100 nM beacon
Procedure: as §6, §5

E3 peptide [7] = settings: cited from earlier work

Question: Which Kd (E3 peptide [1]) does the source give for “unlabeled modified K3 peptide K ICALKAK IAALKAK ICALKA GY (SEQ ID NO:12) [K3-b1b3]” here?
Answer: 45 nM

Question: Which “fluorescence enhancement compared with the beacon only sample” value (FosLZ) does the source give for “K ICALKAK IAALKAK ICALKAGY (SEQ ID NO: 12) with two 6-TAMRA fluorophores attached at the cysteines via maleimide [K3-b1b3 beacon]” here?
Answer: 1.6 fold

Question: And the “fluorescence enhancement compared with the beacon only sample” value (unlabeled GCN4 244)?
Answer: 1.2 fold

Question: And the “effect on fluorescence emission of the beacon” value (wild-type MBP)?
Answer: does not have effects

Question: What about the “binding by gel-shift assay” value (MBP-E3) of the same substance?
Answer: Specific binding

Question: And the “non-specific fluorescence enhancement by unrelated peptides” value [2]?
Answer: no significant non-specific fluorescence enhancement

Question: What about the Kd (E3 peptide [3]; curve fitting, 1 μM beacon titration, read-out: Kd value for binding between K3-b1b3 beacon and E3 peptide) of the same substance?
Answer: 766 nM

Question: And the Kd (E3 peptide [3]; curve fitting, titration of 10 nM beacon, read-out: Kd value for binding between K3-b1b3 beacon and E3 peptide)?
Answer: 738 nM

Question: And the Kd (E3 peptide [3]; read-out: Kd, result of 1 μM beacon titration (restated), 1 μM beacon titration)?
Answer: 766 nM

Question: And the maximum fluorescence enhancement (E3 peptide [3]; titration of 1 μM K3-b1b3 beacon with E3 peptide)?
Answer: about 12 fold

Question: What about the “fluorescence enhancement compared with the beacon only sample” value (unlabeled JunLZ-Lb1b4) of the same substance?
Answer: 1.5 fold

Question: What about the “fluorescence enhancement compared with the beacon only sample” value (E3 peptide [4]) of the same substance?
Answer: 7.0 fold

Question: For “GCN4 225/244 beacon: GCN4 bZip S225C/A244C (SEQ ID NO: 27), fused to C-terminal end of MBP, TAMRA labelled”, which “change of absorbance spectrum in the presence of AP-1 DNA” value (AP-1 DNA [5]) is on record?
Answer: significant alteration of its absorbance spectrum

Question: What about the maximum fluorescence increase (AP-1 DNA [6]) of the same substance?
Answer: 4.3 fold

Question: And the “effect of AT DNA on fluorescence” value (AT DNA)?
Answer: no effects

Question: With “original K3 peptide K IAALKEK IAALKEK IAALKE (SEQ ID NO:29)” as the substance, how does the Kd (E3 peptide [7]; literature value restated in Example 4, read-out: Kd value for binding between the K3 and E3 peptides) read?
Answer: 70 nM

Question: And the Kd (E3 peptide [7]; reported in the literature, read-out: Kd value for binding between the original K3 and E3 peptides)?
Answer: 70 nM
